Blank lines part the entries; values can stand above or below the molecule they belong to.
Assays:
PD-L1 and PD-L2 = conditions: Hsp90 N-terminal inhibitors; cited from earlier work
[1] = test system: patient-derived human melanoma cells; conditions: cited from earlier work
[2] = test system: 4T1 tumor-infiltrating CD8+ T cells; assay: Immunofluorescence of 4T1 tumor-infiltrating immune cells; type: in vivo, mouse; conditions: EnnA 10 mg/kg/48 h, 17-AAG 25 mg/kg/48 h
[3] = test system: cytokine/chemokine mRNA in E0771 cells; assay: RTqPCR of cytokines, chemokines and CX3CR1
MDA-MB-231 cells = assay: Flow cytometry of surface Hsp90, calreticulin, HMGB1, MDA-MB-231 cells; type: cell-based, human; conditions: 7.5 μM EnnA, 0.5 µM 17-AAG, 24h
Hsp90β/p23 = assay: Co-immunoprecipitation of purified Hsp90β with p23; type: binding, human; conditions: 40 μM EnnA or 5 μM 17-AAG, 5 mM ATP, 30 min 30°C
[4] = test system: MEFs, MCF10A, E0771, Hs578T cells; assay: Cytotoxicity to normal versus cancer cells; type: cell-based, mouse and human; conditions: 24, 48, 72 h; EnnA 1.25-20 µM, 17AAG 0.15-5 µM; absorbance 490 nm
[5] = test system: Hsp90 client proteins, Hsp70, Hsp40, Hsp27; assay: Western blot of Hsp90 client and heat shock proteins in cells; type: cell-based, human and murine
E0771 transcriptome = assay: Bulk RNA-seq of E0771 cells; type: cell-based, murine; conditions: ∼14%
[6] = test system: progesterone receptor (PR) refolding by Hsp90 chaperone machine; assay: Progesterone receptor; type: biochemical, rabbit
4T1 tumors = assay: Histology; type: in vivo, mouse
Hsp90β/HOP = assay: Co-immunoprecipitation of purified Hsp90β with HOP; type: binding, human; conditions: 40 μM EnnA or 5 μM 17-AAG, 5 mM ATP, 30 min 30°C
Hsp90β [7] = conditions: cited from earlier work
cancer cells [8] = conditions: cited from earlier work
Hsp90β [9] = assay: Cellular thermal shift assay; type: cell-based, murine; conditions: E0771 cells, 20 μM, 90 mn
cancer cells [10] = conditions: cited from earlier work; remark: listed apart in the source
[11] = test system: lung breast cancer metastasis; conditions: cited from earlier work
E0771 tumors = assay: EnnA combined with CX3CR1 antagonist JMS-17-2, E0771 tumors; type: in vivo, mouse; conditions: JMS-17-2 10 mg/kg i.p. every 48 h alternating with EnnA 10 mg/kg
Human Hsp90β, purified = Human Hsp90β, purified (human, UniProt P08238 1-724); assay: co-IP
Human Hsp90β, purified, sequence (P08238 whole entry): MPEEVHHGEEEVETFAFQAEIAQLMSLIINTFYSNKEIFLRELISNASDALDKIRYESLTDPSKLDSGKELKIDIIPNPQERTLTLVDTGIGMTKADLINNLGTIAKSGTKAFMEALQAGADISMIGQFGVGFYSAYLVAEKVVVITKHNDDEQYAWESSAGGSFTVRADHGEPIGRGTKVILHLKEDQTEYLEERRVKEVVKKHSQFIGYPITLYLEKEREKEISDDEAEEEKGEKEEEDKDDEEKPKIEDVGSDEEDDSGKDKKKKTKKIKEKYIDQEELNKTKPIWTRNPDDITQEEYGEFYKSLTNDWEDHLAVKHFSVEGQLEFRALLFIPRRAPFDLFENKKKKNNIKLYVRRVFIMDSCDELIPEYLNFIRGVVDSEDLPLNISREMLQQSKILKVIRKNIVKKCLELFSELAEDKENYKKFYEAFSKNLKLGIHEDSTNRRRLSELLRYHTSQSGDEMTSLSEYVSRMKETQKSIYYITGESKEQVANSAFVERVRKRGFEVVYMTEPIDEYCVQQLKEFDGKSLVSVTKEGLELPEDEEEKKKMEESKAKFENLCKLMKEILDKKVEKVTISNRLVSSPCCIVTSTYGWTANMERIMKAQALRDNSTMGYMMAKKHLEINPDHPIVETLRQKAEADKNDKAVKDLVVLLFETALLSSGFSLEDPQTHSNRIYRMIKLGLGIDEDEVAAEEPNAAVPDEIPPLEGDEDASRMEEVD

Molecule: CC(C)c1cc(-c2n[nH]c(=O)n2-c2ccc3c(ccn3C)c2)c(O)cc1O [ganetespib]
transcription and cell-surface expression of PD-L1 and PD-L2 (PD-L1 and PD-L2): significant decrease in the transcription and cancer cell-surface expression of immune checkpoint ligands PD-L1 and PD-L2
T-cell-mediated killing of melanoma cells ([1]; autologous T cells in vitro): enhances T-cell-mediated killing of patient-derived human melanoma cells
effect on anti-CTLA4 and anti-PD-1 therapy ([1]; in vivo): potentiates responses to anti-CTLA4 and anti-PD-1 therapy in vivo

Molecule: C=CCNC1=C2C[C@@H](C)C[C@H](OC)[C@H](O)[C@@H](C)/C=C(\C)[C@H](OC(N)=O)[C@@H](OC)/C=C\C=C(/C)C(=O)NC(=CC1=O)C2=O [17-AAG, 17-N-allylamino-demethoxygeldanamycin]
CD8+ T cell infiltration [2]: much less so in the 17-AAG-treated group
IL10 mRNA ([3]; E0771, RNA-seq and RTqPCR): decreased mRNA expression of anti-inflammatory cytokines such as IL10
pro-inflammatory cytokines IL12b, TNFα, IL1β mRNA ([3]; RTqPCR): limited impact on these inflammatory cytokines
surface exposure of Hsp90, calreticulin, HMGB1 vs 17-AAG (MDA-MB-231 cells): not induced by 17-AAG
effect on Hsp90β binding to p23 (Hsp90β/p23): as with 17-AAG, EnnA disrupts Hsp90β binding to p23
discrimination between cancer and non-transformed cells [4]: does not discriminate between cancer and non-transformed immortalized cells in cell culture
heat shock response (mRNA and protein of Hsp70, Hsp40, Hsp27) ([5]; 0.5 μM 17-AAG): upregulation of mRNA and protein levels of Hsp70, Hsp40, and Hsp27
Hsp90 client protein level ([5]; EnnA at EC50, 0.5 μM 17-AAG): induced Hsp90 client protein degradation
number of genes in common between EnnA and 17-AAG (E0771 transcriptome): 34 genes
accumulation of Hsp70-rich intermediate chaperoning complexes ([6]; SDS-PAGE/Coomassie, 1 μM 17-AAG, 10 μM EnnA): accumulation of the intermediate chaperoning complexes rich with Hsp70 as observed with 17-AAG
tumor necrosis (4T1 tumors; 4T1, H&E, EnnA 10 mg/kg, 17-AAG 25 mg/kg): more necrotic than controls
immune-like cell infiltration of necrotic areas (4T1 tumors; 4T1 tumors): not as infiltrated as in the case of EnnA-treated animals
effect on Hsp90β binding to HOP (Hsp90β/HOP): unlike 17-AAG, EnnA does not affect HOP binding to purified Hsp90β

Molecule: CC(C)=CCC[C@]1(C)C=Cc2c(O)c3c(c(CC=C(C)C)c2O1)O[C@]12C(=C[C@@H]4C[C@H]1C(C)(C)O[C@@]2(C/C=C(/C)C(=O)O)C4=O)C3=O [GBA]
binding to Hsp90β middle domain (Hsp90β [7]): binds selectively to the middle domain of Hsp90β
mode of cancer cell death (cancer cells [8]): GBA-induced cancer cell paraptosis

Molecule: Enniatin B [AD96]
CETSA stabilization of Hsp90 (Hsp90β [9]): did not stabilize Hsp90
inhibition of PR refolding ([6]; RRL, Figures S1A–S1C, 10 µM drug in screen): did not inhibit the PR refolding

Molecule: CC(C)C[C@H](NC(=O)[C@H](Cc1ccccc1)NC(=O)c1cnccn1)B(O)O [bortezomib]
Hsp90 exposure at cell surface (cancer cells [10]): expose Hsp90 at the cell surface

Molecule: CCNC(=O)c1noc(-c2cc(C(C)C)c(O)cc2O)c1-c1ccc(CN2CCOCC2)cc1 [Luminespib]
transcription and cell-surface expression of PD-L1 and PD-L2 (PD-L1 and PD-L2): significant decrease in the transcription and cancer cell-surface expression of immune checkpoint ligands PD-L1 and PD-L2

Molecule: COC1=C2C[C@@H](C)C[C@H](OC)[C@H](O)[C@@H](C)/C=C(\C)[C@H](OC(N)=O)[C@@H](OC)/C=C\C=C(/C)C(=O)NC(=CC1=O)C2=O [geldanamycin]
transcription and cell-surface expression of PD-L1 and PD-L2 (PD-L1 and PD-L2): significant decrease in the transcription and cancer cell-surface expression of immune checkpoint ligands PD-L1 and PD-L2

Molecule: CC1(C)CC(=O)c2c(C(F)(F)F)nn(-c3ccc(C(N)=O)c(N[C@H]4CC[C@H](OC(=O)CN)CC4)c3)c2C1 [SNX-5422]
transcription and cell-surface expression of PD-L1 and PD-L2 (PD-L1 and PD-L2): significant decrease in the transcription and cancer cell-surface expression of immune checkpoint ligands PD-L1 and PD-L2

Molecule: CC(C)NCCCn1c(Sc2cc3c(cc2I)OCO3)nc2c(N)ncnc21 [PU-H71]
transcription and cell-surface expression of PD-L1 and PD-L2 (PD-L1 and PD-L2): significant decrease in the transcription and cancer cell-surface expression of immune checkpoint ligands PD-L1 and PD-L2

Molecule: Cl.O=c1c2cccn2c2ccccc2n1CCCN1CCC(c2ccc(Cl)cc2)CC1 [JMS-17-2, 5-[3-[4-(4-Chlorophenyl)-1-piperidinyl]propyl]pyrrolo[1,2-a]quinoxalin-4(5H)-one hydrochloride]
lung breast cancer metastasis [11]: reduce lung breast cancer metastasis
effect on EnnA antitumor efficacy (E0771 tumors): significantly reduced the efficacy of EnnA

binding result (Human Hsp90β, purified): binds
B1: Human p23, purified (natural protein, UniProt Q15185 1-160, looked up)
chain: MQPASAKWYDRRDYVFIEFCVEDSKDVNVNFEKSKLTFSCLGGSDNFKHLNEIDLFHCIDPNDSKHKRTDRSILCCLRKGESGQSWPRLTKERAKLNWLSVDFNNWKDWEDDSDEDMSNFDRFSEMMNNMGGDEDVDLPEVDGADDDSQDSDDEKMPDLE
